Test results from patent US10787452B2 (Vertex Pharmaceuticals Incorporated, priority 2012, dated 2020).

System: HCT116 colorectal cancer cells
Experiment: Cisplatin sensitization assay (96 h cell viability MTS);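 further: compound concentration needed to lower the Cisplatin-alone IC50 by a set fold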
Type: cell-based
Conditions: 96 h MTS, compound plus Cisplatin
Method in brief: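 HCT116 cells were co-treated with compound and cisplatin, each in 2-fold serial dilutions from a 10 μM top final concentration, as a full matrix. After 96 h at 37 °C, 5% CO2, viability was read by MTS following a 1 h incubation with reagent.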

| Structure (SMILES) | Cisplatin Sensitization Assay |
| --- | --- |
| Nc1nn2cc(F)cnc2c1C(=O)Nc1cncc2c1CCNC2 [I-C-7, 2-amino-6-fluoro-N-(5,6,7,8-tetrahydro-2,7-naphthyridin-4-yl)pyrazolo[1,5-a]pyrimidine-3-carboxamide] | ++ (Compounds with a Cisplatin sensitization value >0.02 μM but <0.2 μM are marked with “++.”) |
| CN1CCN2CCN(c3ccncc3NC(=O)c3c(N)nn4cc(Cl)cnc34)CC2C1 (stereo not drawn) [I-N-61, 2-amino-6-chloro-N-(4-(8-methylhexahydro-1H-pyrazino[1,2-a]pyrazin-2(6H)-yl)pyridin-3-yl)pyrazolo[1,5-a]pyrimidine-3-carboxamide] | +++ (Compounds with a Cisplatin sensitization value of <0.02 μM are marked with “+++.”) |
| Nc1nn2cc(F)cnc2c1C(=O)Nc1cnccc1N1CCCC2(COC2)C1 [I-N-253, N-(4-(2-oxa-6-azaspiro[3.5]nonan-6-yl)pyridin-3-yl)-2-amino-6-fluoropyrazolo[1,5-a]pyrimidine-3-carboxamide] | +++ (Compounds with a Cisplatin sensitization value of <0.02 μM are marked with “+++.”) |
| CN(C)CCCNC(=O)C1CCN(c2c(F)cncc2NC(=O)c2c(N)nn3cc(F)cnc23)CC1 [I-G-26, 2-amino-N-(4-(4-((3-(dimethylamino)propyl)carbamoyl)piperidin-1-yl)-5-fluoropyridin-3-yl)-6-fluoropyrazolo[1,5-a]pyrimidine-3-carboxamide] | ++ (Compounds with a Cisplatin sensitization value >0.02 μM but <0.2 μM are marked with “++.”) |
| CC(=O)N1CCC(c2ccncc2NC(=O)c2c(N)nn3cc(F)cnc23)CC1 [I-C-69, N-(4-(1-acetylpiperidin-4-yl)pyridin-3-yl)-2-amino-6-fluoropyrazolo[1,5-a]pyrimidine-3-carboxamide] | +++ (Compounds with a Cisplatin sensitization value of <0.02 μM are marked with “+++.”) |
| CN(C)CCOc1ccncc1NC(=O)c1c(N)nn2cc(CC#N)cnc12 [I-O-24, 2-amino-6-(cyanomethyl)-N-(4-(2-(dimethylamino)ethoxy)pyridin-3-yl)pyrazolo[1,5-a]pyrimidine-3-carboxamide] | ++ (Compounds with a Cisplatin sensitization value >0.02 μM but <0.2 μM are marked with “++.”) |
| Nc1nn2cc(F)cnc2c1C(=O)Nc1cncc(F)c1N1CCC(C(=O)N2CCC2)CC1 [I-G-8, 2-amino-N-(4-(4-(azetidine-1-carbonyl)piperidin-1-yl)-5-fluoropyridin-3-yl)-6-fluoropyrazolo[1,5-a]pyrimidine-3-carboxamide] | +++ (Compounds with a Cisplatin sensitization value of <0.02 μM are marked with “+++.”) |
| CC1(O)CCN(c2ccncc2NC(=O)c2c(N)nn3cc(Cl)cnc23)CC1 [I-N-66, 2-amino-6-chloro-N-(4-(4-hydroxy-4-methylpiperidin-1-yl)pyridin-3-yl)pyrazolo[1,5-a]pyrimidine-3-carboxamide] | +++ (Compounds with a Cisplatin sensitization value of <0.02 μM are marked with “+++.”) |
| Nc1nn2cc(F)cnc2c1C(=O)Nc1cnccc1Oc1cccnc1 [I-O-7, 2-amino-6-fluoro-N-(4-(pyridin-3-yloxy)pyridin-3-yl)pyrazolo[1,5-a]pyrimidine-3-carboxamide] | ++ (Compounds with a Cisplatin sensitization value >0.02 μM but <0.2 μM are marked with “++.”) |
| Cn1cncc1-c1c(F)cncc1NC(=O)c1c(N)nn2cc(F)cnc12 [I-C-79, 2-amino-6-fluoro-N-(5-fluoro-4-(1-methyl-1H-imidazol-5-yl)pyridin-3-yl)pyrazolo[1,5-a]pyrimidine-3-carboxamide] | +++ (Compounds with a Cisplatin sensitization value of <0.02 μM are marked with “+++.”) |
| Cc1nc(N2CCN(C)CC2)ccc1-c1ccncc1NC(=O)c1c(N)nn2cc(F)cnc12 [I-C-40, 2-amino-6-fluoro-N-(2-methyl-6-(4-methylpiperazin-1-yl)-[3,4′-bipyridin]-3′-yl)pyrazolo[1,5-a]pyrimidine-3-carboxamide] | +++ (Compounds with a Cisplatin sensitization value of <0.02 μM are marked with “+++.”) |
| Nc1nn2cc(Cl)cnc2c1C(=O)Nc1cnccc1N1CCC(N2CCC3(COC3)C2)CC1 [I-N-99, N-(4-(4-(2-oxa-6-azaspiro[3.4]octan-6-yl)piperidin-1-yl)pyridin-3-yl)-2-amino-6-chloropyrazolo[1,5-a]pyrimidine-3-carboxamide] | +++ (Compounds with a Cisplatin sensitization value of <0.02 μM are marked with “+++.”) |
| Nc1nn2cc(F)cnc2c1C(=O)Nc1cncc(F)c1N1CCCCC1 [I-N-270, 2-amino-6-fluoro-N-(5-fluoro-4-(piperidin-1-yl)pyridin-3-yl)pyrazolo[1,5-a]pyrimidine-3-carboxamide] | +++ (Compounds with a Cisplatin sensitization value of <0.02 μM are marked with “+++.”) |
| CC1(N2CCN(c3ccncc3NC(=O)c3c(N)nn4cc(F)cnc34)CC2)COC1 [I-N-62, 2-amino-6-fluoro-N-(4-(4-(3-methyloxetan-3-yl)piperazin-1-yl)pyridin-3-yl)pyrazolo[1,5-a]pyrimidine-3-carboxamide] | ++ (Compounds with a Cisplatin sensitization value >0.02 μM but <0.2 μM are marked with “++.”) |
| CCn1cncc1-c1ccncc1NC(=O)c1c(N)nn2cc(F)cnc12 [I-C-80, 2-amino-N-(4-(1-ethyl-1H-imidazol-5-yl)pyridin-3-yl)-6-fluoropyrazolo[1,5-a]pyrimidine-3-carboxamide] | +++ (Compounds with a Cisplatin sensitization value of <0.02 μM are marked with “+++.”) |
| CNc1cc(OC)c(NC(=O)c2c(N)nn3cc(F)cnc23)cn1 [I-O-90, 2-amino-6-fluoro-N-(4-methoxy-6-(methylamino)pyridin-3-yl)pyrazolo[1,5-a]pyrimidine-3-carboxamide] | + (Compounds with a Cisplatin sensitization value >0.2 μM but <5 μM are marked with “+.”) |
| CNC(=O)C1CCN(c2c(F)cncc2NC(=O)c2c(N)nn3cc(F)cnc23)CC1 [I-G-33, 2-amino-6-fluoro-N-(5-fluoro-4-(4-(methylcarbamoyl)piperidin-1-yl)pyridin-3-yl)pyrazolo[1,5-a]pyrimidine-3-carboxamide] | +++ (Compounds with a Cisplatin sensitization value of <0.02 μM are marked with “+++.”) |
| COc1ccncc1NC(=O)c1c(N)nn2cc(Cl)cnc12 [I-O-57, 2-amino-6-chloro-N-(4-methoxypyridin-3-yl)pyrazolo[1,5-a]pyrimidine-3-carboxamide] | +++ (Compounds with a Cisplatin sensitization value of <0.02 μM are marked with “+++.”) |
| Nc1nn2cc(F)cnc2c1C(=O)Nc1cnccc1N1CCN([C@@H]2CCOC2)CC1 [I-N-10, (R)-2-amino-6-fluoro-N-(4-(4-(tetrahydrofuran-3-yl)piperazin-1-yl)pyridin-3-yl)pyrazolo[1,5-a]pyrimidine-3-carboxamide] | ++ (Compounds with a Cisplatin sensitization value >0.02 μM but <0.2 μM are marked with “++.”) |
| Nc1nn2cc(F)cnc2c1C(=O)Nc1cnccc1-c1ccc(C(=O)N2CCC(N3CCCC3)CC2)nc1 [I-C-53, 2-amino-6-fluoro-N-(6-(4-(pyrrolidin-1-yl)piperidine-1-carbonyl)-[3,4′-bipyridin]-3′-yl)pyrazolo[1,5-a]pyrimidine-3-carboxamide] | +++ (Compounds with a Cisplatin sensitization value of <0.02 μM are marked with “+++.”) |
| Cc1cncc(NC(=O)c2c(N)nn3cc(Cl)cnc23)c1N1CCN(C)CC1 [I-N-57, 2-amino-6-chloro-N-(5-methyl-4-(4-methylpiperazin-1-yl)pyridin-3-yl)pyrazolo[1,5-a]pyrimidine-3-carboxamide] | +++ (Compounds with a Cisplatin sensitization value of <0.02 μM are marked with “+++.”) |
| N#CC1(C(=O)N2CCC(c3ccncc3NC(=O)c3c(N)nn4cc(F)cnc34)CC2)CC1 [I-C-71, 2-amino-N-(4-(1-(1-cyanocyclopropanecarbonyl)piperidin-4-yl)pyridin-3-yl)-6-fluoropyrazolo[1,5-a]pyrimidine-3-carboxamide] | +++ (Compounds with a Cisplatin sensitization value of <0.02 μM are marked with “+++.”) |
| Nc1nn2cc(Cl)cnc2c1C(=O)Nc1cnccc1N1CCN2CCC[C@H]2C1 [I-N-71, (S)-2-amino-6-chloro-N-(4-(hexahydropyrrolo[1,2-a]pyrazin-2(1H)-yl)pyridin-3-yl)pyrazolo[1,5-a]pyrimidine-3-carboxamide] | +++ (Compounds with a Cisplatin sensitization value of <0.02 μM are marked with “+++.”) |
| Nc1nn2cc(F)cnc2c1C(=O)Nc1cncc(F)c1N1CCC(C(=O)N2CC3CCC(C2)N3)CC1 [I-G-44, N-(4-(4-(3,8-diazabicyclo[3.2.1]octane-3-carbonyl)piperidin-1-yl)-5-fluoropyridin-3-yl)-2-amino-6-fluoropyrazolo[1,5-a]pyrimidine-3-carboxamide] | +++ (Compounds with a Cisplatin sensitization value of <0.02 μM are marked with “+++.”) |
| Nc1nn2cc(F)cnc2c1C(=O)Nc1cncc(F)c1N1CCN(C(=O)C2CCOC2)CC1 (stereo not drawn) [I-N-274, 2-amino-6-fluoro-N-(5-fluoro-4-(4-(tetrahydrofuran-3-carbonyl)piperazin-1-yl)pyridin-3-yl)pyrazolo[1,5-a]pyrimidine-3-carboxamide] | +++ (Compounds with a Cisplatin sensitization value of <0.02 μM are marked with “+++.”) |
| Nc1nn2cc(F)cnc2c1C(=O)Nc1cncc(F)c1N1CCC(C(=O)N2CCC(N3CCCCC3)CC2)CC1 [I-G-60, N-(4-(4-([1,4′-bipiperidine]-1′-carbonyl)piperidin-1-yl)-5-fluoropyridin-3-yl)-2-amino-6-fluoropyrazolo[1,5-a]pyrimidine-3-carboxamide] | +++ (Compounds with a Cisplatin sensitization value of <0.02 μM are marked with “+++.”) |
| COCCN1CCN(c2c(F)cncc2NC(=O)c2c(N)nn3cc(F)cnc23)CC1 [I-N-127, 2-amino-6-fluoro-N-(5-fluoro-4-(4-(2-methoxyethyl)piperazin-1-yl)pyridin-3-yl)pyrazolo[1,5-a]pyrimidine-3-carboxamide] | +++ (Compounds with a Cisplatin sensitization value of <0.02 μM are marked with “+++.”) |
